Measured values: patent US8791131B2, “Imidazo[1,5]naphthyridine compounds, their pharmaceutical use and compositions” (Pfizer Inc., priority 2008, dated 2014)
Like-named read-outs stand apart in the source and are kept apart here.

Tests used:
mTOR = mTOR (Homo sapiens (Human), UniProt P42345)
[1] = tested on: PI3-K (phosphorylation of AKT at serine 473) in BT20 cells; experiment: PI3-Kα cellular assay (phospho-AKT Ser473 ELISA in BT20 cells); settings: Homo sapiens, BT-20, 1 h;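 note: lysates read by ELISA with TMB colour at 450 nm, cells given 0.5% DMSO vehicle serve as positive control and cell-free wells as negative control, duplicate wells per concentration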
PI3-Kα = PI3-Kα (Mus musculus (Mouse), UniProt P42337); experiment: PI3-Kα biochemical assay (in vitro kinase assay, fluorescence polarization); settings: Ki calculated from IC50, [ATP]=30 uM, Km=25 uM;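 note: Insect-cell-expressed mouse p110/p85 complex converting PI(4,5)P2, product PI(3,4,5)P3 detected by displacing TAMRA-tagged PI(3,4,5)P3 from Grip1 PH domain, lower polarization means more product, room temperature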
[2] = read-out: S473 pAKT 10% FBS IC50 (μM)
[3] = read-out: S473 pAKT 0.5% FBS IC50 (μM)

mTOR, sequence (P42345 2156-2469): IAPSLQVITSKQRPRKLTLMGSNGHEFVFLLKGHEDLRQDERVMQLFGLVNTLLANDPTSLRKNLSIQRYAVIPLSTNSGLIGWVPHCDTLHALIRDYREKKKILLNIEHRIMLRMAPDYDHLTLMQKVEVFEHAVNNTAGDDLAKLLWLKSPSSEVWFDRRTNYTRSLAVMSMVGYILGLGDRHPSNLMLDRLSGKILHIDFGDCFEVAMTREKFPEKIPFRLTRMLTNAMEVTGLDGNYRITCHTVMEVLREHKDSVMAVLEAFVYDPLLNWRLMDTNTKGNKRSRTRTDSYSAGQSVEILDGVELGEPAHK
PI3-Kα, sequence (P42337 whole entry, the tested form may be a part): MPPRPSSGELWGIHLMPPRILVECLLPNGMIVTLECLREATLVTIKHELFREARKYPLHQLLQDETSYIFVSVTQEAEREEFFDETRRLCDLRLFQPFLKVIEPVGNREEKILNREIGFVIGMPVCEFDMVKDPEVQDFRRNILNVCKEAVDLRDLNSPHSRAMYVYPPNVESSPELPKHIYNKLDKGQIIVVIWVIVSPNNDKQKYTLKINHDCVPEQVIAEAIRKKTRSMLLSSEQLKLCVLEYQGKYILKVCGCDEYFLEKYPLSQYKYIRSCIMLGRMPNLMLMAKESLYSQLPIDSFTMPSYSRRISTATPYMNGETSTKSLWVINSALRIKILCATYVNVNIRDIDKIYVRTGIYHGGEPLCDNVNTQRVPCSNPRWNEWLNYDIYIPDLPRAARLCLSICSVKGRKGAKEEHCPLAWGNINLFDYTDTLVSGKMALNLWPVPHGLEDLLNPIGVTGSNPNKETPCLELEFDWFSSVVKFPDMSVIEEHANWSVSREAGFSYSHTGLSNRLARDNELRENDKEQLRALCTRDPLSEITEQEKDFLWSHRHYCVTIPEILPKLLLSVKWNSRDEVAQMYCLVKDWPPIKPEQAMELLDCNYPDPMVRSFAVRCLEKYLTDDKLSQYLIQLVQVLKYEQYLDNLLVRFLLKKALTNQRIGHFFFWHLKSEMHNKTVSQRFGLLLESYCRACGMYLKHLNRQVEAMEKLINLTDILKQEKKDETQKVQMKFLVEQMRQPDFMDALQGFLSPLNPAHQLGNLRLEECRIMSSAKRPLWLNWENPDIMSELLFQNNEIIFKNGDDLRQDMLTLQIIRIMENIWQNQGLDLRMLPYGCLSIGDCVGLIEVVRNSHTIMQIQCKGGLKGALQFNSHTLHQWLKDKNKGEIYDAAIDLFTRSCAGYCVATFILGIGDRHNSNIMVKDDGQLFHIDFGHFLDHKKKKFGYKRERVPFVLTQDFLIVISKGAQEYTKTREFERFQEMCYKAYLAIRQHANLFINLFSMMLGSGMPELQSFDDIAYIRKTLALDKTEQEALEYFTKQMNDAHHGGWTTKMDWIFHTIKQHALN
PI3-Kα, sequence (P26450 whole entry partner, the tested form may be a part): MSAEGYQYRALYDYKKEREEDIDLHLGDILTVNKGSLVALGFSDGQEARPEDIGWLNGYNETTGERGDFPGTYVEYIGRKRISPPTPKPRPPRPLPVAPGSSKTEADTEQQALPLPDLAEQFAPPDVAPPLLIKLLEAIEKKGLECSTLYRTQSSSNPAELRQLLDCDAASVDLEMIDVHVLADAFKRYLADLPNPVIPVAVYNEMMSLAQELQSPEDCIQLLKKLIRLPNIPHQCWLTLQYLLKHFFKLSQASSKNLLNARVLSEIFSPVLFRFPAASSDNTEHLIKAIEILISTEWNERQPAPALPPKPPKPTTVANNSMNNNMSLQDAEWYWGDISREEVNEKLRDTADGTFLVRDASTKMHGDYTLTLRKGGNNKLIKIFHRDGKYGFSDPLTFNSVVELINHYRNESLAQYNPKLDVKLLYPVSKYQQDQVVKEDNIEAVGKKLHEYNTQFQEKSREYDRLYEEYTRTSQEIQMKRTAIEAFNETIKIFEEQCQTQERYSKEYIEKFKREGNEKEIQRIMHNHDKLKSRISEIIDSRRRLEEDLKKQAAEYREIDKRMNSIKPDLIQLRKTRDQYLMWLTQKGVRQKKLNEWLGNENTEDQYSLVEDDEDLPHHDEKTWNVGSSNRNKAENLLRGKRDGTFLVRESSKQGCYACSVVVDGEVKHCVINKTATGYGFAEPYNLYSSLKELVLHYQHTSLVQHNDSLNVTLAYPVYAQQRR

SMILES	Ki (mTOR)	IC50 [1, 2]	PI3Ka Ki (PI3-Kα)	IC50 [1, 3]
COc1ncc(-c2ccc3ncc4c(c3n2)n([C@H]2CC[C@H](OCCO)CC2)c(=O)n4C)cn1 [Compound 148, 1-[trans-4-(2-hydroxyethoxy)cyclohexyl]-8-(2-methoxypyrimidin-5-yl)-3-methyl-1,3-dihydro-2H-imidazo[4,5-c][1,5]naphthyridin-2-one]	13.4 nM	0.0263 µM	2.09 nM	–
COc1cccc(-c2ccc3ncc4c(c3n2)n(C2CCN(C(C)=O)CC2)c(=O)n4C)c1 [Compound 277, 1-(1-acetylpiperidin-4-yl)-8-(3-methoxyphenyl)-3-methyl-1,3-dihydro-2H-imidazo[4,5-c][1,5]naphthyridin-2-one]	10.3 nM	0.0577 µM	3.04 nM	–
Cn1c(=O)n([C@H]2CC[C@H](O)CC2)c2c3nc(-c4cnc5ccccc5c4)ccc3ncc21 [Compound 146, 1-(trans-4-hydroxycyclohexyl)-3-methyl-8-quinolin-3-yl-1,3-dihydro-2H-imidazo[4,5-c][1,5]naphthyridin-2-one]	3.8 nM	0.00521 µM	1.2 nM	–
CNC(=O)N1CCC(n2c(=O)n(C)c3cnc4ccc(-c5ccc(OC)nc5)nc4c32)CC1 [Compound 142, 4-[8-(6-methoxypyridin-3-yl)-3-methyl-2-oxo-2,3-dihydro-1H-imidazo[4,5-c][1,5]naphthyridin-1-yl]-N-methylpiperidine-1-carboxamide]	1.6 nM	0.00919 µM	1.15 nM	–
COc1ccc(-c2ccc3ncc4c(c3n2)n([C@@H](C)CO)c(=O)n4C)cn1 [Compound 241, 1-[(1S)-2-hydroxy-1-methylethyl]-8-(6-methoxypyridin-3-yl)-3-methyl-1,3-dihydro-2H-imidazo[4,5-c][1,5]naphthyridin-2-one]	28.7 nM	0.266 µM	4.08 nM	–
Cc1ccc(-c2ccc3ncc4c(c3n2)n(C2CCN(C(=O)CN(C)C)CC2)c(=O)n4C)cn1 [Compound 178, 1-[1-(N,N-dimethylglycyl)piperidin-4-yl]-3-methyl-8-(6-methylpyridin-3-yl)-1,3-dihydro-2H-imidazo[4,5-c][1,5]naphthyridin-2-one]	1.18 nM	0.0427 µM	4.09 nM	–
C[C@H](CO)n1c(=O)n(C)c2cnc3ccc(-c4cccc5[nH]ccc45)nc3c21 [Compound 237, 1-[(1R)-2-hydroxy-1-methylethyl]-8-(1H-indo1-4-yl)-3-methyl-1,3-dihydro-2H-imidazo[4,5-c][1,5]naphthyridin-2-one]	6.66 nM	0.0553 µM	29.6 nM	–
CCOC(=O)N1CCC(n2c(=O)n(C)c3cnc4ccc(-c5cnc6ccccc6c5)nc4c32)CC1 [Compound 127, ethyl 4-(3-methyl-2-oxo-8-quinolin-3-yl-2,3-dihydro-1H-imidazo[4,5-c][1,5]naphthyridin-1-yl)piperidine-1-carboxylate]	4.3 nM	–	1.38 nM	0.0204 µM
Cn1cc(-c2ccc3ncc4c(c3n2)n([C@H]2CC[C@H](O)CC2)c(=O)n4C)cn1 [Compound 170, 1-(trans-4-hydroxycyclohexyl)-3-methyl-8-(1-methyl-1H-pyrazo1-4-yl)-1,3-dihydro-2H-imidazo[4,5-c][1,5]naphthyridin-2-one]	7.18 nM	0.107 µM	7.44 nM	–
COCC(=O)N1CCC(n2c(=O)n(C)c3cnc4ccc(-c5cnc6[nH]ncc6c5)nc4c32)CC1 [Compound 260, 1-[1-(methoxyacetyl)piperidin-4-yl]-3-methyl-8-(1H-pyrazolo[3,4-b]pyridin-5-yl)-1,3-dihydro-2H-imidazo[4,5-c][1,5]naphthyridin-2-one]	0.323 nM	0.0153 µM	0.167 nM	–
CN(C)c1ccc(-c2ccc3ncc4c(c3n2)n(C2CCN(CC(F)(F)F)CC2)c(=O)n4C)cn1 [Compound 150, 8-[6-(dimethylamino)pyridin-3-yl]-3-methyl-1-[1-(2,2,2-trifluoroethyl)piperidin-4-yl]-1,3-dihydro-2H-imidazo[4,5-c][1,5]naphthyridin-2-one]	12.5 nM	0.0182 µM	8.78 nM	–
COc1ccc(-c2ccc3ncc4c(c3n2)n(C2CCOCC2)c(=O)n4C)cn1 [Compound 140, 8-(6-methoxypyridin-3-yl)-3-methyl-1-(tetrahydro-2H-pyran-4-yl)-1,3-dihydro-2H-imidazo[4,5-c][1,5]naphthyridin-2-one]	7.74 nM	0.0185 µM	0.668 nM	–
Cc1ccc(-c2ccc3ncc4c(c3n2)n(C2CCN(C)CC2)c(=O)n4C)cn1 [Compound 171, 3-methyl-1-(1-methylpiperidin-4-yl)-8-(6-methylpyridin-3-yl)-1,3-dihydro-2H-imidazo[4,5-c][1,5]naphthyridin-2-one]	40.1 nM	0.0228 µM	4.26 nM	–
Cc1ccc(-c2ccc3ncc4c(c3n2)n(C2CCN(C(=O)CN)CC2)c(=O)n4C)cn1 [Compound 180, 1-(1-glycylpiperidin-4-yl)-3-methyl-8-(6-methylpyridin-3-yl)-1,3-dihydro-2H-imidazo[4,5-c][1,5]naphthyridin-2-one]	3.84 nM	0.0689 µM	0.32 nM	–
CCN1CCC(n2c(=O)n(C)c3cnc4ccc(-c5cnc6ccccc6c5)nc4c32)CC1 [Compound 119, 1-(1-ethylpiperidin-4-yl)-3-methyl-8-quinolin-3-yl-1,3-dihydro-2H-imidazo[4,5-c][1,5]naphthyridin-2-one]	8.11 nM	–	3.19 nM	0.0117 µM
CN(C)c1ccc(-c2ccc3ncc4c(c3n2)n(C2CCN(C(N)=O)CC2)c(=O)n4C)cn1 [Compound 197, 4-{8-[6-(dimethylamino)pyridin-3-yl]-3-methyl-2-oxo-2,3-dihydro-1H-imidazo[4,5-c][1,5]naphthyridin-1-yl}piperidine-1-carboxamide]	0.444 nM	0.0358 µM	1.05 nM	–
COc1ccc(-c2ccc3ncc4[nH]c(=O)n(-c5ccc(C(C)(C)C#N)cc5)c4c3n2)cn1 [Compound 103, 2-{4-[8-(6-methoxypyridin-3-yl)-2-oxo-2,3-dihydro-1H-imidazo[4,5-c]-1,5-naphthyridin-1-yl]phenyl}-2-methylpropanenitrile]	2.09 nM	–	1.86 nM	0.0115 µM
COc1ncc(-c2ccc3ncc4[nH]c(=O)n(-c5ccc(C(C)(C)C#N)cc5)c4c3n2)cn1 [Compound 111, 2-(4-(8-(2-methoxypyrimidin-5-yl)-2-oxo-2,3-dihydroimidazo[4,5-c][1,5]naphthyridin-1-yl)phenyl)-2-methylpropanenitrile]	1.54 nM	–	11.4 nM	0.0439 µM
Cn1c(=O)n(C2CCN(C(=O)C(C)(C)N)CC2)c2c3nc(-c4cnc5ccccc5c4)ccc3ncc21 [Compound 145, 3-methyl-1-[1-(2-methylalanyl)piperidin-4-yl]-8-quinolin-3-yl-1,3-dihydro-2H-imidazo[4,5-c][1,5]naphthyridin-2-one]	13.3 nM	0.0117 µM	3.92 nM	–
C[C@H](CO)n1c(=O)n(C)c2cnc3ccc(-c4cnc5[nH]ncc5c4)nc3c21 [Compound 238, 1-[(1R)-2-hydroxy-1-methylethyl]-3-methyl-8-(1H-pyrazolo[3,4-b]pyridin-5-yl)-1,3-dihydro-2H-imidazo[4,5-c][1,5]naphthyridin-2-one]	4.44 nM	0.0838 µM	0.438 nM	–
COc1ncc(-c2ccc3ncc4c(c3n2)n(C2CCOCC2)c(=O)n4C)cn1 [Compound 201, 8-(2-methoxypyrimidin-5-yl)-3-methyl-1-(tetrahydro-2H-pyran-4-yl)-1,3-dihydro-2H-imidazo[4,5-c][1,5]naphthyridin-2-one]	6.42 nM	0.0989 µM	8.96 nM	–
CN1CCC(n2c(=O)n(C)c3cnc4ccc(-c5cnc6[nH]ncc6c5)nc4c32)CC1 [Compound 263, 3-methyl-1-(1-methylpiperidin-4-yl)-8-(1H-pyrazolo[3,4-b]pyridin-5-yl)-1,3-dihydro-2H-imidazo[4,5-c][1,5]naphthyridin-2-one]	5.67 nM	0.0218 µM	0.282 nM	–
Cc1ccc(-c2ccc3ncc4c(c3n2)n([C@H]2CC[C@H](OCCO)CC2)c(=O)n4C)cn1 [Compound 152, 1-[trans-4-(2-hydroxyethoxy)cyclohexyl]-3-methyl-8-(6-methylpyridin-3-yl)-1,3-dihydro-2H-imidazo[4,5-c][1,5]naphthyridin-2-one]	11.4 nM	0.00863 µM	1.68 nM	–
Cn1c(=O)n(C2CCNCC2)c2c3nc(-c4cnn(CCO)c4)ccc3ncc21 [Compound 226, 8-[1-(2-hydroxyethyl)-1H-pyrazol-4-yl]-3-methyl-1-piperidin-4-yl-1,3-dihydro-2H-imidazo[4,5-c][1,5]naphthyridin-2-one]	105 nM	3.21 µM	52.1 nM	–
CN1CCC(n2c(=O)n(C)c3cnc4ccc(-c5cnc6ccccc6c5)nc4c32)CC1 [Compound 129, 3-methyl-1-(1-methylpiperidin-4-yl)-8-quinolin-3-yl-1,3-dihydro-2H-imidazo[4,5-c][1,5]naphthyridin-2-one]	4.9 nM	–	5.92 nM	0.0117 µM
CCNC(=O)Nc1ccc(-c2ccc3ncc4c(c3n2)n(C2CCN(C(=O)OC(C)(C)C)CC2)c(=O)n4C)cc1 [Compound 265, tert-butyl 4-(8-{4-[(ethylcarbamoyl)amino]phenyl}-3-methyl-2-oxo-2,3-dihydro-1H-imidazo[4,5-c][1,5]naphthyridin-1-yl)piperidine-1-carboxylate]	14.4 nM	0.0399 µM	5.02 nM	–
